What was measured:
[1] = biological target: T1, IKZF1 (Homo sapiens, UniProt Q13422+Q96SW2); assay: HEK293 HiBiT in vitro degradation of IKZF1; format: cell-based; conditions: for DC50: HEK293 HiBiT, 18-24 hr incubation, normalized to DMSO control, read-out: IKZF1 EC50; for Dmax: HEK293, HEK293 HiBiT, maximum degradation at the highest concentration tested
T1 construct: expressed in transfected cells
Procedure, shortened: (§1)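 Stable HEK293 reporter pools, each with one integrated tet-inducible copy of a HiBiT-tagged target, were induced with doxycycline overnight at 37 °C. After 18-24 h with compound dilution series, Nano-Glo lysis and luminescence yielded EC50 and Dmax values.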

[2] = biological target: IKZF2 (Homo sapiens, UniProt Q96SW2+Q9UKS7); assay: HEK293 HiBiT in vitro degradation of IKZF2; format: cell-based; set-up: expressed in transfected cells; conditions: for Dmax: HEK293, HEK293 HiBiT; for Dmax / IKZF2 Dmax: maximum degradation at the highest concentration tested; for DC50 / IKZF2 Dmax: HEK293 HiBiT; for DC50: 18-24 hr incubation, normalized to DMSO control, read-out: IKZF2 EC50
Procedure, shortened: as §1

T1 sequence (Q13422 whole entry): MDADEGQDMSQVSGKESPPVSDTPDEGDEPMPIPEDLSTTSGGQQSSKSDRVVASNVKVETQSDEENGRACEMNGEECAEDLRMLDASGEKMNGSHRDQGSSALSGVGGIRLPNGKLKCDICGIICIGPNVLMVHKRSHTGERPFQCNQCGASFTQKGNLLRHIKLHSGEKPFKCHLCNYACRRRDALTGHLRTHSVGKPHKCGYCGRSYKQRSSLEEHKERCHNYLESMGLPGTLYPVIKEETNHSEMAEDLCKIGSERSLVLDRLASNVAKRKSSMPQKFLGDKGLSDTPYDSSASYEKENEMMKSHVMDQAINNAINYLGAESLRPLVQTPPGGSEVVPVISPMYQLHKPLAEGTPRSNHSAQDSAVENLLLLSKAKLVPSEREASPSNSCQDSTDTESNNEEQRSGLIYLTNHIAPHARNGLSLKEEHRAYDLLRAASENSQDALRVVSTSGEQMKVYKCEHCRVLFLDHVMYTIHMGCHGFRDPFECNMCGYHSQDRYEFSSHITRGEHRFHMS
T1 sequence (Q96SW2 whole entry): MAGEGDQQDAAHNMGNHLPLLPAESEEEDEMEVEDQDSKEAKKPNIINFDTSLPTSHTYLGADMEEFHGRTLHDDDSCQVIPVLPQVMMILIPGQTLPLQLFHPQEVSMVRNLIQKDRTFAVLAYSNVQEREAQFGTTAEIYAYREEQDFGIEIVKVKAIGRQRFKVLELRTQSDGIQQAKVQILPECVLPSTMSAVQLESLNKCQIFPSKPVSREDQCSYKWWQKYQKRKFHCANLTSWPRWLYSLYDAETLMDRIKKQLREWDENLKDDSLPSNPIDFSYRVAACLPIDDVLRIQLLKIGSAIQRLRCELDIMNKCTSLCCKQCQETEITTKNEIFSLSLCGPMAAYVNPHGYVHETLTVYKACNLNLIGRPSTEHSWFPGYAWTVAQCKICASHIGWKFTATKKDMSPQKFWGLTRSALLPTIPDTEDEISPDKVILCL
T1 sequence (Q16531 whole entry partner): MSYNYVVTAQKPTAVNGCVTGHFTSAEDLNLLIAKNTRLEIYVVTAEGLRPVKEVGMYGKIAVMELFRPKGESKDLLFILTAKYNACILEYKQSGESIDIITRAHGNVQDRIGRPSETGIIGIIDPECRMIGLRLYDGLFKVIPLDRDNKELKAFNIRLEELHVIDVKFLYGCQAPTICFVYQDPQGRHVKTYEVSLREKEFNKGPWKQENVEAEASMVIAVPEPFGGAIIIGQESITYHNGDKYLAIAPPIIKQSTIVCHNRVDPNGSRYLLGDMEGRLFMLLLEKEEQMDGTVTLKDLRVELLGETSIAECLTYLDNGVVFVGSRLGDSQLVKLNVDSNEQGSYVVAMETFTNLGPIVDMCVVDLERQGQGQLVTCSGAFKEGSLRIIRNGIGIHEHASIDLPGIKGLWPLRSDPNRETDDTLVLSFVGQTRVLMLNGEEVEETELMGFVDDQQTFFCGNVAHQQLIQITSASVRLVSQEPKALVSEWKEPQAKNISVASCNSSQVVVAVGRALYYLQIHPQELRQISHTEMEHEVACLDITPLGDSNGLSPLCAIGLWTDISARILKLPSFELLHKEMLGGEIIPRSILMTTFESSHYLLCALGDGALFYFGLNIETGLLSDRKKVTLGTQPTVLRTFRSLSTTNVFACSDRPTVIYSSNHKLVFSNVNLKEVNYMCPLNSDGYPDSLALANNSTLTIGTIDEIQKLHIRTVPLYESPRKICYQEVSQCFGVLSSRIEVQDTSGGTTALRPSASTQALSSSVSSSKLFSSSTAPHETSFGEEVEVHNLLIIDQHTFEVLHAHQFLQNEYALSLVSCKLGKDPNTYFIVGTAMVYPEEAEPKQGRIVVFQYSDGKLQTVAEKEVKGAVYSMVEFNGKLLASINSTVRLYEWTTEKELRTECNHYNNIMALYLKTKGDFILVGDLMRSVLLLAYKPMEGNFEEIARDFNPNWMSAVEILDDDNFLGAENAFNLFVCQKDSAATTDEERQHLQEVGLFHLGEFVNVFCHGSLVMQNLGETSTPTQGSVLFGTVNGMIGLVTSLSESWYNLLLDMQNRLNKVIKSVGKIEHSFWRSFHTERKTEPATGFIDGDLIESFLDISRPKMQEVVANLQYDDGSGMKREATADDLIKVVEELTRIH
Sequence of IKZF2 (Q9UKS7 1-500 isoform Q9UKS7-2): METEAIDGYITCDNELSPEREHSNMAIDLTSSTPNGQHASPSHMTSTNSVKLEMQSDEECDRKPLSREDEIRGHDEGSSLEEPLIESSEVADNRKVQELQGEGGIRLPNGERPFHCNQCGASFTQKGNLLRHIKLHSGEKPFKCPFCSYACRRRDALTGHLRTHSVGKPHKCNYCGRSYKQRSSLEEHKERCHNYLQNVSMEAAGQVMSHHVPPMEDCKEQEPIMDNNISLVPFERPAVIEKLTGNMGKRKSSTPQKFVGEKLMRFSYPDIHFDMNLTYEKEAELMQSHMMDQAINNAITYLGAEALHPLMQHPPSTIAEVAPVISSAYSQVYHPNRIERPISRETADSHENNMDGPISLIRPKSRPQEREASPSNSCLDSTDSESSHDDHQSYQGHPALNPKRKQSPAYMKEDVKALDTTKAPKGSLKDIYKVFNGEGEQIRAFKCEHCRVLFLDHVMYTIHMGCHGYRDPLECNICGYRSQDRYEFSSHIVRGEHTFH
Sequence of IKZF2 (Q96SW2 whole entry): as the sequence (Q96SW2 whole entry) above
Sequence of IKZF2 (Q16531 whole entry partner): as the sequence (Q16531 whole entry partner) above

Row | Compound | DC50 [1] [nM] | Dmax [2] [%] | DC50 [2] [nM] | IKZF2 Dmax [2] [%] | Dmax [1] [%]
1 | O=C1CCC(N2Cc3c(ccc(C[C@H]4CCCC[C@@H]4NCc4ccccc4)c3F)C2=O)C(=O)N1 (stereo partly drawn) [Example 11, 3-(5-(((1R,2S)-2-(benzylamino)cyclohexyl)methyl)-4-fluoro-1-oxoisoindolin-2-yl)piperidine-2,6-dione] | > 1000 | 98 | 7 | – | –
2 | CS(=O)(=O)c1ccc(CN[C@H]2CCCC[C@@H]2Cc2ccc3c(c2)CN(C2CCC(=O)NC2=O)C3=O)cc1 (stereo partly drawn) [Example 12, 3-(5-(((1R,2S)-2-((4-(methylsulfonyl)benzyl)amino)cyclohexyl)methyl)-1-oxoisoindolin-2-yl)piperidine-2,6-dione] | > 1000 | 85 | 106 | – | –
3 | O=C1CCC(N2Cc3cc(C[C@H]4CCCC[C@@H]4NCc4cc(Cl)cc(Cl)c4)ccc3C2=O)C(=O)N1 (stereo partly drawn) [Example 13, 3-(5-(((1R,2S)-2-((3,5-dichlorobenzyl)amino)cyclohexyl)methyl)-1-oxoisoindolin-2-yl)piperidine-2,6-dione] | > 1000 | 68 | 79 | – | –
4 | COc1ccc(CN[C@H]2CCCC[C@@H]2Cc2ccc3c(c2)CN(C2CCC(=O)NC2=O)C3=O)cc1 (stereo partly drawn) [Example 14, 3-(5-(((1R,2S)-2-((4-methoxybenzyl)amino)cyclohexyl)methyl)-1-oxoisoindolin-2-yl)piperidine-2,6-dione] | > 1000 | 88 | 27 | – | –
5 | O=C1CCC(N2Cc3cc(C[C@H]4CCCC[C@@H]4NCc4cc(F)cc(F)c4)ccc3C2=O)C(=O)N1 (stereo partly drawn) [Example 15, 3-(5-(((1R,2S)-2-((3,5-difluorobenzyl)amino)cyclohexyl)methyl)-1-oxoisoindolin-2-yl)piperidine-2,6-dione] | > 1000 | 95 | 20 | – | –
6 | O=C1CCC(N2Cc3cc(C[C@H]4CCCC[C@@H]4NCc4ccc(C(F)(F)F)cc4)ccc3C2=O)C(=O)N1 (stereo partly drawn) [Example 16, 3-(1-oxo-5-(((1R,2S)-2-((4-(trifluoromethyl)benzyl)amino)cyclohexyl)methyl)isoindolin-2-yl)piperidine-2,6-dione] | > 1000 | 87 | 42 | – | –
7 | N#Cc1ccc(CN[C@H]2CCCC[C@@H]2Cc2ccc3c(c2)CN(C2CCC(=O)NC2=O)C3=O)c(F)c1 (stereo partly drawn) [Example 17, 4-((((1S,2R)-2-((2-(2,6-dioxopiperidin-3-yl)-1-oxoisoindolin-5-yl)methyl)cyclohexyl)amino)methyl)-3-fluorobenzonitrile] | > 1000 | 77 | 70 | – | –
8 | O=C1CCC(N2Cc3cc(C[C@H]4CCCC[C@@H]4NCc4c(F)cccc4F)ccc3C2=O)C(=O)N1 (stereo partly drawn) [Example 18, 3-(5-(((1R,2S)-2-((2,6-difluorobenzyl)amino)cyclohexyl)methyl)-1-oxoisoindolin-2-yl)piperidine-2,6-dione] | > 1000 | 89 | 42 | – | –
9 | O=C1CCC(N2Cc3cc(C[C@H]4CCCC[C@@H]4NCc4ccc(F)cc4F)ccc3C2=O)C(=O)N1 (stereo partly drawn) [Example 19, 3-(5-(((1R,2S)-2-((2,4-difluorobenzyl)amino)cyclohexyl)methyl)-1-oxoisoindolin-2-yl)piperidine-2,6-dione] | > 1000 | 89 | 30 | – | –
10 | CN(Cc1ccccc1)[C@H]1CCCC[C@@H]1Cc1ccc2c(c1)CN(C1CCC(=O)NC1=O)C2=O (stereo partly drawn) [Example 21, 3-(5-(((1R,2S)-2-(benzyl(methyl)amino)cyclohexyl)methyl)-1-oxoisoindolin-2-yl)piperidine-2,6-dione] | > 1000 | 49 | 409 | – | –
11 | O=C1CCC(N2Cc3cc(C[C@H]4CCCC[C@@H]4NCc4cc(F)ccc4F)ccc3C2=O)C(=O)N1 (stereo partly drawn) [Example 22, 3-(5-(((1R,2S)-2-((2,5-difluorobenzyl)amino)cyclohexyl)methyl)-1-oxoisoindolin-2-yl)piperidine-2,6-dione] | > 1000 | 86 | 34 | – | –
12 | [2H]c1c([2H])c([2H])c(CN(Cc2c([2H])c([2H])c([2H])c([2H])c2[2H])[C@H]2CCCC[C@@H]2Cc2ccc3c(c2)CN(C2CCC(=O)NC2=O)C3=O)c([2H])c1[2H] (stereo partly drawn) [Example 26, 3-(5-(((1R,2S)-2-(bis((phenyl-d5)methyl)amino)cyclohexyl)methyl)-1-oxoisoindolin-2-yl)piperidine-2,6-dione] | > 1000 | 57 | 530 | – | –

Results, then the molecule that gave them:

Row | DC50 [1] [nM] | Dmax [2] [%] | DC50 [2] [nM] | IKZF2 Dmax [2] [%] | Dmax [1] [%] | Compound
13 | > 1000 | 94 | 5 | – | – | O=C1CC[C@@H](N2Cc3c(ccc(C[C@H]4OCCC[C@@H]4N[C@H]4CC[C@@H](F)CC4)c3F)C2=O)C(=O)N1 (single isomer, unassigned) [Example 372]
14 | > 1000 | – | 629 | 48 | – | O=C1CCC(N2Cc3cc(C[C@H]4CC(CO)CC[C@@H]4NC4CCCCC4)ccc3C2=O)C(=O)N1 (single isomer, unassigned) [Example 382]
15 | > 1000 | – | 226 | 77 | – | O=C1CCC(N2Cc3cc(C[C@H]4CC(CO)CC[C@@H]4NC4CCCCC4)ccc3C2=O)C(=O)N1 (single isomer, unassigned) [Example 383]
16 | 933 | 82 | 225 | – | 30 | N[C@H]1CCCC[C@@H]1Cc1ccc2c(c1)CN(C1CCC(=O)NC1=O)C2=O (stereo partly drawn) [Example 1, 3-(5-(((1R,2S)-2-aminocyclohexyl)methyl)-1-oxoisoindolin-2-yl)piperidine-2,6-dione]
17 | 34 | 94 | 19 | – | 38 | O=C1CCC(N2Cc3cc(C[C@H]4CCCC[C@@H]4NCc4ccccc4Cl)ccc3C2=O)C(=O)N1 (stereo partly drawn) [Example 3, 3-(5-(((1R,2S)-2-((2-chlorobenzyl)amino)cyclohexyl)methyl)-1-oxoisoindolin-2-yl)piperidine-2,6-dione]
18 | 130 | 92 | 58 | – | 26 | O=C1CCC(N2Cc3cc(C[C@H]4CCCC[C@@H]4NCc4ccccc4)c(F)cc3C2=O)C(=O)N1 (stereo partly drawn) [Example 4, 3-(5-(((1R,2S)-2-(benzylamino)cyclohexyl)methyl)-6-fluoro-1-oxoisoindolin-2-yl)piperidine-2,6-dione]
19 | > 1000 | 92 | 353 | – | – | O=C1CCC(N2Cc3c(ccc(C[C@H]4CCCC[C@@H]4N(Cc4ccccc4)Cc4ccccc4)c3F)C2=O)C(=O)N1 (stereo partly drawn) [Example 5, 3-(5-(((1R,2S)-2-(dibenzylamino)cyclohexyl)methyl)-4-fluoro-1-oxoisoindolin-2-yl)piperidine-2,6-dione]
20 | 122 | 90 | 30 | – | 32 | O=C1CCC(N2Cc3cc(C[C@H]4CCCC[C@@H]4NCc4cncs4)ccc3C2=O)C(=O)N1 (stereo partly drawn) [Example 6, 3-(1-oxo-5-(((1R,2S)-2-((thiazol-5-ylmethyl)amino)cyclohexyl)methyl)isoindolin-2-yl)piperidine-2,6-dione]
21 | 229 | 94 | 47 | – | 34 | O=C1CCC(N2Cc3cc(C[C@H]4CCCC[C@@H]4NCC4CC4)ccc3C2=O)C(=O)N1 (stereo partly drawn) [Example 8, 3-(5-(((1R,2S)-2-((cyclopropylmethyl)amino)cyclohexyl)methyl)-1-oxoisoindolin-2-yl)piperidine-2,6-dione]
22 | > 1000 | 92 | 19 | – | – | O=C1CCC(N2Cc3cc(C[C@H]4CCCC[C@@H]4NCc4ccc5ccccc5c4)ccc3C2=O)C(=O)N1 (stereo partly drawn) [Example 9, 3-(5-(((1R,2S)-2-((naphthalen-2-ylmethyl)amino)cyclohexyl)methyl)-1-oxoisoindolin-2-yl)piperidine-2,6-dione]
23 | 388 | 96 | 13 | – | 46 | O=C1CCC(N2Cc3cc(C[C@H]4CCCC[C@@H]4NCC4CCC(F)(F)CC4)ccc3C2=O)C(=O)N1 (stereo partly drawn) [Example 10, 3-(5-(((1R,2S)-2-(((4,4-difluorocyclohexyl)methyl)amino)cyclohexyl)methyl)-1-oxoisoindolin-2-yl)piperidine-2,6-dione]
24 | 99 | 94 | 19 | – | 35 | N#Cc1ccc(CN[C@H]2CCCC[C@@H]2Cc2ccc3c(c2)CN(C2CCC(=O)NC2=O)C3=O)cc1 (stereo partly drawn) [Example 20, 4-((((1S,2R)-2-((2-(2,6-dioxopiperidin-3-yl)-1-oxoisoindolin-5-yl)methyl)cyclohexyl)amino)methyl)benzonitrile]
25 | 70 | 97 | 3 | – | 27 | CC1(C)CCC(N[C@H]2CCCC[C@@H]2Cc2ccc3c(c2)CN(C2CCC(=O)NC2=O)C3=O)CC1 (stereo partly drawn) [Example 27, 3-(5-(((1R,2S)-2-((4,4-dimethylcyclohexyl)amino)cyclohexyl)methyl)-1-oxoisoindolin-2-yl)piperidine-2,6-dione]
26 | 574 | 96 | 5 | – | 39 | O=C1CCC(N2Cc3cc(C[C@H]4CCCC[C@@H]4NC4CC5CC(C5)C4)ccc3C2=O)C(=O)N1 (stereo partly drawn) [Example 29, 3-(5-(((1R,2S)-2-(bicyclo[3.1.1]heptan-3-ylamino)cyclohexyl)methyl)-1-oxoisoindolin-2-yl)piperidine-2,6-dione]
27 | 42 | 81 | 29 | – | 34 | O=C1CCC(N2Cc3cc(C[C@H]4CCCC[C@@H]4N4CC(Oc5ccccc5Cl)C4)ccc3C2=O)C(=O)N1 (stereo partly drawn) [Example 30, 3-(5-(((1R,2S)-2-(3-(2-chlorophenoxy)azetidin-1-yl)cyclohexyl)methyl)-1-oxoisoindolin-2-yl)piperidine-2,6-dione]
